BindingDB's records for doi:10.1021/jm030317k (Astrazeneca, 2004)

Key:
[1] = target: Vascular endothelial growth factor receptor 1 (Homo sapiens, UniProt P17948); test: In Vitro Src Kinase Inhibition Test
From the text: (§1) This assay determines the ability of test compounds to inhibit Src kinase activity that catalyzes the transfer of the terminal phosphate to the immobilized poly (Glu,Tyr) substrate detected using anti-phosphotyrosine monoclonal antibody conjugated to alkaline phosphatase. IC50 values for compound enzyme inhibition were obtained using KC3 Kineticalc software (Bio-Tek Instruments) following subtraction of the blank values.

[2] = target: Fibroblast growth factor receptor 1 (Homo sapiens, UniProt P11362); test: In Vitro Src Kinase Inhibition Test
Fibroblast growth factor receptor 1, sequence (P11362 whole entry): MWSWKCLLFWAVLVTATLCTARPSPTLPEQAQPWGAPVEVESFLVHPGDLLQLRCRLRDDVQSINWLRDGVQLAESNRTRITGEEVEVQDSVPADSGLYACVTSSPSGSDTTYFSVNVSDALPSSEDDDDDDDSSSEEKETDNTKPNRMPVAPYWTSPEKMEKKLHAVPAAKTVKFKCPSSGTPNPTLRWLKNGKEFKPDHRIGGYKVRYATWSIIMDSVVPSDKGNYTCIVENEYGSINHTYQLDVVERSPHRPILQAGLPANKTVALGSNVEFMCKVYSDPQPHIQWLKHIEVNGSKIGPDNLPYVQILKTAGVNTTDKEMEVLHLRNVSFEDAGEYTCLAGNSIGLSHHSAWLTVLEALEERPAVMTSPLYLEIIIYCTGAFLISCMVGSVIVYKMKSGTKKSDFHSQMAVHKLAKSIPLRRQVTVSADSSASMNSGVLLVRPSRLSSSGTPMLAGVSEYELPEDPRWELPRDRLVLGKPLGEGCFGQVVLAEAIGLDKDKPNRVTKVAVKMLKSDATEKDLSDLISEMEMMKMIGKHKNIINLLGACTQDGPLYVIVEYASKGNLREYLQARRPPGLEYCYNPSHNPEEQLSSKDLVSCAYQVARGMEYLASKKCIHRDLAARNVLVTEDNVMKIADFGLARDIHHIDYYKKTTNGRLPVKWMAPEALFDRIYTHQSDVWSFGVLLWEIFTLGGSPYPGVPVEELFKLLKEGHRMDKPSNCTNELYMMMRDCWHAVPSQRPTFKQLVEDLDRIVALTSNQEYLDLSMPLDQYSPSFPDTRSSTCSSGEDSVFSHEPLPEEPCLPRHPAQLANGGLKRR
From the text: as §1

[3] = target: Proto-oncogene tyrosine-protein kinase Src (Homo sapiens, UniProt P12931); test: In Vitro Src Kinase Inhibition Test; conditions: pH 7.4; 22 °C
Proto-oncogene tyrosine-protein kinase Src, sequence (P12931 2-536 limits assumed): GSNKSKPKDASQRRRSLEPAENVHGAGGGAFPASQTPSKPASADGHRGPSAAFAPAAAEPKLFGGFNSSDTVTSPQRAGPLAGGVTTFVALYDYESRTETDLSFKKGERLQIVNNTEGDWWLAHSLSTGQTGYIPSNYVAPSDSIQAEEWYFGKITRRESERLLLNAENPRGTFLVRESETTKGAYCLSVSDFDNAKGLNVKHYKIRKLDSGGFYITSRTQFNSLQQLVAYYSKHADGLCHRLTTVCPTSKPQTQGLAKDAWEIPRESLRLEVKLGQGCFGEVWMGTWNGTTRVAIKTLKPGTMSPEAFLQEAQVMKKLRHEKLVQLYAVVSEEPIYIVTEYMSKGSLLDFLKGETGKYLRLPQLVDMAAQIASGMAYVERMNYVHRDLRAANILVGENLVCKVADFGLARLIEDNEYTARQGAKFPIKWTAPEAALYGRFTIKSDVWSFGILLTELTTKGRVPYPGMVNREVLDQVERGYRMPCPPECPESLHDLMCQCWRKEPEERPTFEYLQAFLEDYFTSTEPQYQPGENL
From the text: as §1

[4] = target: T1, Vascular endothelial growth factor receptor 2 (Homo sapiens, UniProt P35968); test: VEGF-R Kinase Inhibition Assay; conditions: 25 °C
T1 sequence (P35968 whole entry): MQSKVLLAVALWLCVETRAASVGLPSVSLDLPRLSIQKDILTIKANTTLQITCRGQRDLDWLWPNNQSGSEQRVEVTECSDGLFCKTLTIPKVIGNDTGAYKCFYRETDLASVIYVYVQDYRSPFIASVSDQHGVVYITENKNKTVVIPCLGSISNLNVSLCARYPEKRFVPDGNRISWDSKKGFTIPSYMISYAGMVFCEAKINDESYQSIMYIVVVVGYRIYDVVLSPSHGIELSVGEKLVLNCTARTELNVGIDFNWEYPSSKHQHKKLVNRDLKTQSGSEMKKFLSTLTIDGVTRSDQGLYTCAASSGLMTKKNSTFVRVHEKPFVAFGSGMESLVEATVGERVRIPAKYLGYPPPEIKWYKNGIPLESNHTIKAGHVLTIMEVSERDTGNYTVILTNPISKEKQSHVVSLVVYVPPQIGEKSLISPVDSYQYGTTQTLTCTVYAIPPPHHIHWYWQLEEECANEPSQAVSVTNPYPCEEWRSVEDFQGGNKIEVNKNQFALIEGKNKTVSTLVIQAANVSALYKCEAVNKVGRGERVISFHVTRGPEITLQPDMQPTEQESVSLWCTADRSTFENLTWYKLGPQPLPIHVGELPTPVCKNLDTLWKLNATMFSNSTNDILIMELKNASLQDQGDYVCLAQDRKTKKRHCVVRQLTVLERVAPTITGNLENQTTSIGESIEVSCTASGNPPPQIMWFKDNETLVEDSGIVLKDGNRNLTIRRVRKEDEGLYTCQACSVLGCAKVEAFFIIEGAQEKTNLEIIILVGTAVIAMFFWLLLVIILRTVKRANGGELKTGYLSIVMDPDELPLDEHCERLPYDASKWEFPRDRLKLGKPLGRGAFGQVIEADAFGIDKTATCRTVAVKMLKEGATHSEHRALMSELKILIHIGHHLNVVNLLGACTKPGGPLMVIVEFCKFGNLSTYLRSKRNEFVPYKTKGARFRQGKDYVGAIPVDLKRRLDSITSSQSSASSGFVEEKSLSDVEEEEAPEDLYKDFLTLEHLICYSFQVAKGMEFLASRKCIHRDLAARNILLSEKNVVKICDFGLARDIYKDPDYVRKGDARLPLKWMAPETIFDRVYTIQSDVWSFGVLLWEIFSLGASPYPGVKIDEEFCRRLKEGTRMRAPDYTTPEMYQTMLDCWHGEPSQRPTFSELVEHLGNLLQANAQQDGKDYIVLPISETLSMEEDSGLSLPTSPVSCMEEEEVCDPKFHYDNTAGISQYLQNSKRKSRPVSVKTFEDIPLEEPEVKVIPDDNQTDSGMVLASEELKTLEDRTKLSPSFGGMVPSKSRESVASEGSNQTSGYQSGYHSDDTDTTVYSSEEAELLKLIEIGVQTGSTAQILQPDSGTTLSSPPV
Experimental: An ELISA assay was used to determine the ability of inhibitor to inhibit VEGF-RRTK activity. The compounds were incubated with enzyme 20 min at room temperature, with 2uM ATP in 96-well plates coated with a poly(Glu, Ala, Tyr) 6:3:1 random copolymer substrate. Phosphorylated tyrosine was then detected by sequential in cubation with anti-phosphotyrosine antibody. IC50 data were interpolated by nonlinear regression using Microcal Origin software.

[5] = target: T1, Vascular endothelial growth factor receptor 2; test: In Vitro Src Kinase Inhibition Test
From the text: as §1

Vascular endothelial growth factor receptor 1, sequence (P17948 whole entry): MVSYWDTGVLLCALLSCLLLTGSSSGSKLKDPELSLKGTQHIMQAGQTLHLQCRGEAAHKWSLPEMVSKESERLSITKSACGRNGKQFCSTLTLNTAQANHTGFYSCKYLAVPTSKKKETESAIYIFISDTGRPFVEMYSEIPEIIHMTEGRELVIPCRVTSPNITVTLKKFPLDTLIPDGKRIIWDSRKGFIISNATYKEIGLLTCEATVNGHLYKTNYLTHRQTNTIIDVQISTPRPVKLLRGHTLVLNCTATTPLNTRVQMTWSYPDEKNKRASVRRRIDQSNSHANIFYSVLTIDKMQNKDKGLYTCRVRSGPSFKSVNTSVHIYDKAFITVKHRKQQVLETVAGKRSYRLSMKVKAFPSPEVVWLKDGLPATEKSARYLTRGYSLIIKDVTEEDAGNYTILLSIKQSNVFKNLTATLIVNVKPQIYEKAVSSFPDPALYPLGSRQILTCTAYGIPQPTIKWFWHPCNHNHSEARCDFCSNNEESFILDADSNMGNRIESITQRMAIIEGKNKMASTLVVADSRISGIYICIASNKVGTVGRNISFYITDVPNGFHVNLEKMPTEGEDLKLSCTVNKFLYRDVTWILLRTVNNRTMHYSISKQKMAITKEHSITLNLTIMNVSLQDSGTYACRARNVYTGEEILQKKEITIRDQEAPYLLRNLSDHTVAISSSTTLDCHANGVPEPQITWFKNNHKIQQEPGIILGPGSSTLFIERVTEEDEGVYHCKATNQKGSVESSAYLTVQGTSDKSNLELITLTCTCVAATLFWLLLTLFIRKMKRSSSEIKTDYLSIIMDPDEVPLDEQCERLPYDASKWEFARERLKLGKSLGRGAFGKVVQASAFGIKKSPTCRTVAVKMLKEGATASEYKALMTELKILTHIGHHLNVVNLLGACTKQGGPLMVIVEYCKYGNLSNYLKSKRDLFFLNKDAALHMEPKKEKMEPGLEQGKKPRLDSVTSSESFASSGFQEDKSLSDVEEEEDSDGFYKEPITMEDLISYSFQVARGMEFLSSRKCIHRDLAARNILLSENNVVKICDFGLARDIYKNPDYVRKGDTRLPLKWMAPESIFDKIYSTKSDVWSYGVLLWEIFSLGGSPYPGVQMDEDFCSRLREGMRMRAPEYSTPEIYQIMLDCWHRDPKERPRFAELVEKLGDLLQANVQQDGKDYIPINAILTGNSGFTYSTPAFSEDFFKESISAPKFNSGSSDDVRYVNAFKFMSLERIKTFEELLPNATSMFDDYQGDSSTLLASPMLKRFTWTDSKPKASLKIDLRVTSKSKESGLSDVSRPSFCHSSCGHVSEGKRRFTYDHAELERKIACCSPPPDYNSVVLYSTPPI

## COc1cc2c(Nc3c(Cl)ccc4c3OCO4)ncnc2cc1OCc1ccnc(C#N)c1 [4-[({4-[(5-chloro-2H-1,3-benzodioxol-4-yl)amino]-6-methoxyquinazolin-7-yl}oxy)methyl]pyridine-2-carbonitrile]
[1]
  IC50: > 100 µM
[2]
  IC50: > 100 µM

## COc1ccc(Cl)c(Nc2ncnc3cc(OCC4CCN(C)CC4)c(OC)cc23)c1 [AZD0530 analogue 35]
[3]
  IC50: 0.01 µM
[4]
  IC50: 0.67 µM

## COc1cc2c(Nc3c(Cl)ccc4c3OCO4)ncnc2cc1OCCCN1CCCCC1 [BMCL182776 Compound 1]
[5]
  IC50: 21.7 µM
